Assay [1] relates to Miapaca2 xenograft model. Description: Tumor growth inhibition in Miapaca2 xenograft model. Format: in vivo, Athymic nude mouse. To be noted: 20 mg/kg intraperitoneally once a day for 4 weeks. On the procedure: In order to confirm the tumor growth inhibitory effect of the compounds of Examples according to the present invention in a xenograft model in which the human pancreatic cancer cell line was transplanted, a cancer growth inhibition experiment was conducted in the Miapaca2 xenograft model.
Specific experimental methods are as follows. The frozen Miapaca-2 cell line was thawed and cultured in DMEM (Dulbecco's modified Eagle's medium) supplemented with 10% FBS and 1% penicillin-streptomycin in a 37° C., 5% CO2 incubator. The thawed cells were cultured for more than one week, and subcultured at intervals of 2˜3 days, confirming that there was no infection with bacteria, yeast (cell image) and mycoplasma. The cells were stained with trypan blue, and those having a survival rate of 90% or more were used for transplantation. The cells were suspended using trypsin-EDTA and then suspended in a cold solution (PBS:matrigel=6:4). Miapaca-2 cells (4×10^6 cells/[…]) were subcutaneously transplanted under the right scapula of the Athymic nude mouse, which had been acclimated for about 1 week. From the 3rd day after the transplantation, tumor formation and growth were observed, and the volume of the tumor was calculated according to the following equation using the measured tumor length.
[Tumor volume=(a^2b)/2, a: short diameter, b: long diameter]
When the average tumor volume of all mice on the day after tumor transplantation was 80±20 mm^3, the mice were grouped by paired-matching. Drugs were dissolved in 40% polyethylene glycol 400+16% 2-hydroxypropyl-b-cyclodextrin. The drugs were intraperitoneally administered at 20 mg/kg once a day for 4 weeks. A tumor growth curve was prepared using the tumor volume from the start date of drug administration to the end of the test. The results are shown in FIG. 1, and the tumor growth inhibition rates of the compounds of Examples to the control group are shown in Table 4.

Assay [2] relates to MC38 syngeneic model. Description: Combination therapy with anti CTLA-4 in MC38 syngeneic model. Format: in vivo, C57BL/6 mouse. How it is done:
In order to confirm the synergistic efficacy of the combination therapy of the compounds of Examples of the present invention and a cancer immunotherapy agent (anti CTLA-4) in a syngeneic animal model transplanted with a mouse colorectal cancer cell line, a cancer cell growth inhibition experiment was conducted in the MC38 syngeneic model. Specific experimental methods are as follows. The frozen MC38 cell line was thawed and cultured in DMEM (Dulbecco's modified Eagle's medium) supplemented with 10% FBS and 1% penicillin-streptomycin in a 37° C., 5% CO2 incubator. The thawed cells were cultured for more than one week, and subcultured at intervals of 2-3 days, confirming that there was no infection with bacteria, yeast (cell image) and mycoplasma. The cells were stained with trypan blue, and those having a survival rate of 90% or more were used for transplantation. The cells were suspended using trypsin-EDTA and then suspended in cold PBS. MC38 cells (1×10^5 cells/150 μl) were subcutaneously transplanted under the right scapula of the C57BL/6 mouse, which had been acclimated for about 1 week. From the 3rd day after the transplantation, tumor formation and growth were observed, and the volume of the tumor was calculated according to the following equation using the measured tumor length. [Tumor volume=(a^2b)/2, a: short diameter, b: long diameter] When the average tumor volume of all mice on the day after tumor transplantation was 80±20 mm^3, the mice were grouped by paired-matching. Drugs were dissolved in 40% polyethylene glycol 400+16% 2-hydroxypropyl-b-cyclodextrin. The compounds of Examples of the present invention were intraperitoneally administered at 30 mg/kg once a day for 4 weeks, and the CTLA-4 antibody (BioX Cell, cat. BE1031) was intraperitoneally administered at 10 mg/kg three times a week. A tumor growth curve was prepared using the tumor volume from the start date of drug administration to the end of the test. The results are shown in FIG. 2, and the tumor growth inhibition rates of the compounds of Examples to the control group are shown in Table 5.

In assay [3] the target is EHMT2 (Euchromatic histone-lysine N-methyltransferase 2) (Homo sapiens (Human), UniProt Q96KQ7). Description: EHMT2 enzyme inhibition, LANCE TR-FRET. As to conditions: histone H3 peptide, 1 hour at room temperature. Format: biochemical. The method, boiled down: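 EHMT2/G9a enzyme preincubated 10 min with SAM and compounds (1 nM–100 μM, 4× stocks), then reacted 1 hour at room temperature with biotinylated histone H3 peptide (2 μM, 4× stock). H3K9 methylation detected by Eu-antibody/ULight-streptavidin TR-FRET at 665 nm; background-subtracted activity expressed relative to 4% DMSO vehicle; IC50 calculated.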
Chain of EHMT2 (Euchromatic histone-lysine N-methyltransferase 2) (Q96KQ7 whole entry): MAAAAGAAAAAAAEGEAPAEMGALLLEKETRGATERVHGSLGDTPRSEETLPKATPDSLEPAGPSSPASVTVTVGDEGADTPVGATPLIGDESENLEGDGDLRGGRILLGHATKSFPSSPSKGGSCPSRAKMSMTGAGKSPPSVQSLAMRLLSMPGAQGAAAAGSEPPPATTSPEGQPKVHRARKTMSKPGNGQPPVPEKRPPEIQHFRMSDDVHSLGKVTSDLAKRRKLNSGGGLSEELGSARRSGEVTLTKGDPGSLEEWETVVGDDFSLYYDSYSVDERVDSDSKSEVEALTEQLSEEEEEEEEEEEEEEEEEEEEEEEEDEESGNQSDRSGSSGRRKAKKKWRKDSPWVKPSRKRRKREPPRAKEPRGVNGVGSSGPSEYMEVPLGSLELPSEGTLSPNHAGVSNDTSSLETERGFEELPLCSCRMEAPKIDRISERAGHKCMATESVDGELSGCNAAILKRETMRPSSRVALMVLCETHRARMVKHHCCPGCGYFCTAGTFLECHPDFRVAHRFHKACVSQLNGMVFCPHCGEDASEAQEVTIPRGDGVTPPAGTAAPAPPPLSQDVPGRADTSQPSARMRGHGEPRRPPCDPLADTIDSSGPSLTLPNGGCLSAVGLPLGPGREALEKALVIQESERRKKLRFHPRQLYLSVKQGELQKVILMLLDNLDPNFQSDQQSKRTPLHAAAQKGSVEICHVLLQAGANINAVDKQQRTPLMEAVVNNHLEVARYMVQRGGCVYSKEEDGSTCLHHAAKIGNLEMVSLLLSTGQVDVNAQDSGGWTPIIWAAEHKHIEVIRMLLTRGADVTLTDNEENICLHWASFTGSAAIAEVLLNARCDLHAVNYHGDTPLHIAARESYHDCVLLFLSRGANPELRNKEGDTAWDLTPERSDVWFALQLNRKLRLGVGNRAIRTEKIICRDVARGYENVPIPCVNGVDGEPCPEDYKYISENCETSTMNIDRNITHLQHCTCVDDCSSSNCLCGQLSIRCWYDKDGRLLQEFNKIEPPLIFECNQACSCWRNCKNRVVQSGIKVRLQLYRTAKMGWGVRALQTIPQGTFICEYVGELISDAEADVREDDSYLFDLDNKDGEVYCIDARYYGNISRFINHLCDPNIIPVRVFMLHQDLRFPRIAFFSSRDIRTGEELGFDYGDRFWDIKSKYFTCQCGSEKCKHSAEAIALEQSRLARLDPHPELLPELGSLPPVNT

The test system of assay [4] is pancreatic cancer cell line Miapaca 2. Description: Cancer cell growth inhibition test, CellTiter-glo. Format: cell-based. As to conditions: Homo sapiens, MIA PaCa-2, Miapaca 2 cells, 72 hours. On the procedure: In order to confirm the effect of reducing cell viability by inhibiting EHMT2 by the compounds of Examples in cells, the effect of inhibiting cancer cell growth was analyzed using CellTiter-glo™ analysis (Promega, cat. G7573) method. Specifically, the amount of ATP in living cells was measured and IC50 values were calculated using software to compare the inhibitory effect of the compounds of Examples on cell viability. First, the pancreatic cancer cell line Miapaca 2 was placed in a 96-well cell culture plate at the density of 1×10^3 cells/well and cultured overnight, and then each well of the plate was treated with 1 nM to 100 μM of the compounds of Examples 1 to 89 at each concentration for 72 hours (The final concentration of DMSO in each well was 0.5% or less). CellTiter-glo 2.0 reagent was mixed with a medium at 20% of the amount of the medium, reacted at room temperature for 10 minutes, and then 80 μL of the mixture was transferred to each well of a 96-well plate, followed by measuring the degree of luminescence.
In general terms: In ATP-based viability assays light output follows the ATP content of the culture.

The structures appear in SMILES notation.

By IC50 is commonly meant the midpoint of a concentration-inhibition curve. Lower therefore signals greater potency. As for `COc1cc2c(NC3CCN(C(C)C)CC3)nc(N3CCCCC3)nc2cc1C#CCCN(C)C` [Example 3, 7-(4-(dimethylamino)-1-butyne-1-yl)-N-(1-isopropylpiperidine-4-yl)-6-methoxy-2-(piperidine-1-yl)quinazoline-4-amine], the “Tumor growth inhibition rate (TGI)” value in assay [1] worked out at 42.47; in assay [2] (compound alone, 30 mg/kg intraperitoneally once a day for 4 weeks) it was 3.00%. The “Effect of combination with cancer immunotherapy agent (in words)” value in assay [2] (combined with anti CTLA-4) was “enhancing the anticancer activity of a cancer immunotherapy agent”. In addition, the “Anticancer activity alone (in words)” value in assay [2] (treated alone) is reported as “inhibits tumor growth even when treated alone”. The IC50 in assay [3] is less than 100 nM; in assay [4], 655 nM.

As to `COc1cc2c(NC3CCN(C(C)C)CC3)nc(N3CCCC3)nc2cc1C#CCCN1CCCC1` [Example 42, N-(1-isopropylpiperidine-4-yl)-6-methoxy-2-(pyrrolidine-1-yl)-7-(4-(pyrrolidine-1-yl)-1-butyne-1-yl)quinazoline-4-amine], the IC50 is less than 100 nM in assay [3] and 304 nM in assay [4].

For `COc1cc2c(NC3CCN(C(C)C)CC3)nc(N(C)C)nc2cc1C#CCCN1CCCC1` [Example 49, N4-(1-isopropylpiperidine-4-yl)-6-methoxy-N2,N2-dimethyl-7-(4-(pyrrolidine-1-yl)-1-butyne-1-yl)quinazoline-2,4-diamine], the IC50 in assay [3] was less than 100 nM; in assay [4], 333 nM.

Take `COc1cc2c(NCCN(C)C)nc(N3CCCC3)nc2cc1C#CCCN1CCCC1` [Example 52, N1-(6-methoxy-2-(pyrrolidine-1-yl)-7-(4-(pyrrolidine-1-yl)-1-butyne-1-yl)quinazoline-4-yl)-N2,N2-dimethylethane-1,2-diamine]: in assay [1], the “Tumor growth inhibition rate (TGI)” value is 26.39. Further, the figures for the half-maximal inhibitory concentration (IC50) in assay [3] and in assay [4] were less than 100 nM and 464 nM, respectively.

As to `COc1cc2c(NC3CCN(C4CC4)CC3)nc(N(C)C)nc2cc1C#CCCN1CCCC1` [Example 55, N4-(1-cyclopropylpiperidine-4-yl)-6-methoxy-N2,N2-dimethyl-7-(4-(pyrrolidine-1-yl)-1-butyne-1-yl)quinazoline-2,4-diamine], the “Tumor growth inhibition rate (TGI)” value in assay [1] turned out to be 31.80. The 50% inhibitory concentration (IC50) was less than 100 nM in assay [3] and 307 nM in assay [4].

Regarding `COc1cc2c(NC3CCN(C4CC4)CC3)nc(N3CCCN(C)CC3)nc2cc1C#CCCN1CCCC1` [Example 56, N-(1-cyclopropylpiperidine-4-yl)-6-methoxy-2-(4-methyl-1,4-diazepane-1-yl)-7-(4-(pyrrolidine-1-yl)-1-butyne-1-yl)quinazoline-4-amine], the IC50 in assay [3] is less than 100 nM; in assay [4] it was 192 nM.

`COc1cc2c(NC3CCN(C(C)C)CC3)nc(N3CC[C@@H](F)C3)nc2cc1C#CCCN1CCCC1` [Example 60, (R)-2-(3-fluoropyrrolidine-1-yl)-N-(1-isopropylpiperidine-4-yl)-6-methoxy-7-(4-(pyrrolidine-1-yl)-1-butyne-1-yl)quinazoline-4-amine]: the figures for the IC50 in assay [3] and in assay [4] were less than 100 nM and 669 nM, respectively.
